Results: DBAASP
≈ marks a conversion by molar mass, not a printed value. Where “and” joins values, the source holds several entries; their conditions need not be identical. Identical values can stand only once.

Tests used:
Assay in all cases: ≥ marks a high value that may be exact or a test limit, other limits are often not marked, values filed in µg/mL are converted to µM
[1] = tested on: Pseudomonas aeruginosa ATCC 27853
[2] = tested on: Enterococcus faecium ATCC 35667
[3] = tested on: Streptococcus pneumoniae ATCC 33400
[4] = tested on: Klebsiella pneumoniae ATCC 700603
[5] = tested on: Klebsiella pneumoniae ATCC 13883
[6] = tested on: Staphylococcus aureus ATCC 33591
[7] = tested on: Staphylococcus aureus ATCC 25923
[8] = tested on: Streptococcus pneumoniae ATCC 700677
[9] = tested on: Enterococcus faecium ATCC 51559
[10] = tested on: Escherichia coli ATCC 25922
[11] = tested on: Escherichia coli CGSC 5167
[12] = tested on: Pseudomonas aeruginosa ATCC 10145
[13] = tested on: Candida albicans ATCC 14053
[14] = tested on: Acinetobacter baumannii ATCC 19606
Acinetobacter baumannii = tested on: Acinetobacter baumannii
[15] = tested on: Staphylococcus aureus mprF
Escherichia coli O29 = tested on: Escherichia coli O29
[16] = tested on: Streptococcus pyogenes NZ131
[17] = tested on: Enterococcus faecalis ATCC 19433
Escherichia coli D21 = tested on: Escherichia coli D21
[18] = tested on: Staphylococcus aureus II ATCC 6538P
[19] = tested on: Enterobacter cloacae ATCC 49141
[20] = tested on: Candida albicans ATCC 10231
[21] = tested on: Aspergillus fumigatus ATCC 26430

Compound `CC[C@H](C)[C@H](NC(=O)[C@H](CCCN=C(N)N)NC(=O)[C@H](CCCN=C(N)N)NC(=O)[C@H](Cc1ccccc1)NC(=O)[C@H](CC(C)C)NC(=O)[C@H](CCCN=C(N)N)NC(=O)[C@@H](N)CCCN=C(N)N)C(=O)N[C@@H](CC(C)C)C(=O)N[C@@H](CCCN=C(N)N)C(=O)N[C@@H](Cc1ccc(O)cc1)C(=O)N[C@@H](CC(C)C)C(N)=O` [RRLFRRILRYL] has an MIC [1] of 1.5 µM (≈ 2.34 µg/mL), an MIC [2] of 4 µM (≈ 6.24 µg/mL) and an MIC [3] of 5 µM (≈ 7.8 µg/mL). The MIC [4] was 0.6 µM (≈ 0.937 µg/mL), the MIC [5] was 0.3 µM (≈ 0.468 µg/mL) and the MIC [6] was 3 µM (≈ 4.68 µg/mL). It also gave an MIC [7] of 6 µM (≈ 9.37 µg/mL), an MIC [8] of 4 µM (≈ 6.24 µg/mL) and an MIC [9] of 2 µM (≈ 3.12 µg/mL). The MIC [10] was 0.9 µM (≈ 1.4 µg/mL), the MIC [11] was 0.4 µM (≈ 0.624 µg/mL) and the MIC [12] was 2 µM (≈ 3.12 µg/mL).

Work on `CC[C@H](C)[C@H](NC(=O)[C@H](CCCN=C(N)N)NC(=O)[C@H](CCC(N)=O)NC(=O)[C@@H](NC(=O)[C@@H](NC(=O)[C@H](CCCN=C(N)N)NC(=O)[C@@H](N)CCCCN)[C@@H](C)CC)C(C)C)C(=O)N[C@@H](CCCCN)C(=O)N[C@@H](CC(=O)O)C(=O)N[C@@H](Cc1ccccc1)C(=O)N[C@@H](CC(C)C)C(=O)N[C@@H](CCCN=C(N)N)C(=O)N[C@@H](CC(N)=O)C(=O)N[C@@H](CC(C)C)C(=O)N[C@H](C(=O)N1CCC[C@H]1C(=O)N[C@@H](CCCN=C(N)N)C(=O)N[C@H](C(=O)N[C@@H](CCC(=O)O)C(=O)N[C@@H](CO)C(=O)O)[C@@H](C)O)C(C)C` [KRIVQRIKDFLRNLVPRTES] yielded an MIC [13] of 10 µM (≈ 24.7 µg/mL), an MIC [14] of 25.9 µM (≈ 64 µg/mL) and an MIC (Acinetobacter baumannii) of 9.16 µM (≈ 22.6 µg/mL). The MIC [15] was 16 µM (≈ 39.5 µg/mL), the MIC [7] was greater than 64 µM and the MIC (Escherichia coli O29) was no less than 64 µM. It also gave an MIC [16] of 4 µM (≈ 9.88 µg/mL).

`CC(C)C[C@H](NC(=O)[C@H](Cc1cnc[nH]1)NC(=O)[C@H](CCCCN)NC(=O)[C@H](CC(C)C)NC(=O)[C@H](CC(C)C)NC(=O)[C@H](Cc1cnc[nH]1)NC(=O)[C@H](CCCCN)NC(=O)[C@H](CC(C)C)NC(=O)[C@H](CC(C)C)NC(=O)[C@H](Cc1cnc[nH]1)NC(=O)[C@H](CCCCN)NC(=O)[C@H](CC(C)C)NC(=O)[C@H](C)NC(=O)[C@H](CC(=O)O)NC(=O)[C@@H](N)CC(=O)O)C(=O)O` [DDALKHLLKHLLKHL] gave an MIC [1] of 50 µM (≈ 89.7 µg/mL), an MIC [17] of 25 µM (≈ 44.9 µg/mL) and an MIC (Escherichia coli D21) of no less than 50 µM. For the same compound, the MIC [18] was 25 µM and 22 µM, the MIC [14] was 50 µM (≈ 89.7 µg/mL) and the MIC [19] was no less than 100 µM. The MIC [20] was 12.5 µM (≈ 22.4 µg/mL), the MIC [21] was 12.5 µM and 25 µM and the MIC [10] was 100 µM (≈ 179 µg/mL).
